Tested on: Plasmodium falciparum
Test: Antimalarial activity against synchronous ring-stage Plasmodium falciparum 3D7 infected in erythrocytes incubated for 48 hrs by fluorescence based method
Assay type: functional, organism-based
Conditions: 3D7, Erythrocyte

Row | IC50 [µM] | Structure (SMILES)
1 | 16 | CN1C(=O)[C@@H]2CCCN2C(=O)c2ccccc2NC(=O)[C@H](Cc2ccccc2)NC(=O)[C@@H](CO)NC(=O)[C@H]1Cc1ccccc1
2 | 10 | C[C@H]1NC(=O)[C@@H](Cc2ccccc2)N(C)C(=O)[C@@H]2CCCN2C(=O)c2ccccc2NC(=O)[C@H](Cc2ccc(O)cc2)NC1=O
3 | 0.19 | C[C@H]1NC(=O)[C@@H](Cc2ccccc2)N(C)C(=O)[C@@H]2CCCN2C(=O)c2ccccc2NC(=O)[C@H](Cc2ccc(O)c(Cl)c2)NC1=O
4 | 3 | CN1C(=O)[C@@H]2CCCN2C(=O)c2ccccc2NC(=O)[C@H](Cc2ccccc2)NC(=O)CNC(=O)[C@H]1Cc1ccccc1
5 | > 50 | C[C@H]1NC(=O)[C@@H](Cc2ccccc2)N(C)C(=O)[C@@H]2CCCN2C(=O)c2ccccc2NC(=O)[C@H](CCO)NC1=O
6 | 9.4 | C[C@H]1NC(=O)[C@@H](Cc2ccccc2)N(C)C(=O)[C@@H]2CCCN2C(=O)c2ccccc2NC(=O)[C@H](Cc2ccccc2)NC1=O

Source: ChEMBL document CHEMBL6078663, “Cyclopeptide Avellanins D-O with Antimalarial Activity from the Mariana Trench Anemone-Derived Hamigera ingelheimensis MSC5” (J Nat Prod, 2024)
